From patent US20010056063A1, “METHOD OF TREATING OR PREVENTING TYPE 1 DIABETES BY ORAL ADMINISTRATION OF INSULIN” (priority 1990, published 2001)
Entries after “also recorded” stand apart in the source; their conditions may differ.

What was measured:
Format in all cases: in vivo, mouse
NOD mice [1] = assay: Glucose post oral insulin in fasting 7 week NOD mice (Example 2); settings: for endocrinologic effect on blood glucose: oral 1 mg, over 24 hours
Procedure: In order to determine whether any endocrinologic (i.e. direct lowering of blood sugar) effects occurred following the feeding of insulin, 7 week old NOD mice (5 mice per group) were fed 1 mg of porcine insulin or 1 mg of myelin basic protein (obtained from Pel Freez, Rogers, Ark.) as a control protein. Blood glucose was then measured over the next 24 hour period. As a positive control, a separate group of animals were injected subcutaneously with 20 micrograms of Porcine insulin. All animals were kept in the fasting state.

NOD mice [2] = assay: Aerosol administration of insulin on diabetes in NOD mice (Example 4); settings: aerosol by nebulizer, 0 to 1 mg
Procedure: Insulin (0 to 1 mg as in Examples 1 and 2) will be administered to NOD mice as described above in Examples 1 and 2 except in aerosol form by nebulizer.

NOD mice [3] = assay: Treatment of initial stages of diabetes in hyperglycemic NOD mice (Example 5); settings: oral and aerosol, 0 to 1 mg, hyperglycemic NOD mice from weeks 12-20
Procedure: Insulin (0 to 1 mg as in Examples 1 and 2) will be administered to NOD mice which are suffering from hyperglycemia in an oral and aerosol form. The treatments will begin by weeks 12 -20 of age, by which the serum glucose levels are at hyperglycemic concentrations in a certain percentage of animals prior to onset of diabetes.

[4] = tested on: NOD (non-obese diabetic) mice; assay: Spontaneous diabetes in NOD mice after oral feeding (Examples 1 and 3); settings: for development of diabetes: FIG. 1
Description: NOD (non-obese diabetic mice) were obtained from Taconic Laboratories (Germantown, Mass.) at 4 weeks of age. There were a total of 30 animals in each of the groups mentioned below at the beginning of the experiment. At 4 ½ weeks of age, animals were orally administered Porcine insulin (Novo Laboratories, Danbury, Conn.). Each animal received two treatments orally twice a week until 9 weeks of age. The mice were fed either saline (control) or 10 micrograms, 100 micrograms, or 1 milligram of Porcine insulin. The animals were fed (gavaged) with an 18 gauge ball-point needle (Popper and Sons, Inc., New Hyde Park, N.Y.). Beginning at 10 weeks the animals were then fed once a week for a total of 33 weeks. Beginning at 12 weeks the urine was tested weekly for the presence of glucose using Glucosuria test tape (Eli Lilly, Indianapolis, Ind.). If an animal tested 3+or higher on the glucose urine test, a serum sample was taken and blood glucose measured using a glucose analyzer (Beckman). If the blood glucose was 220 or higher, the animals were classified as diabetic and then sacrificed. An identical experiment to Example 1 was performed in which NOD mice (14-17 per group) were fed one homogenized pancreas derived from Lewis rats in 0.5 mls PBS. […] Nonetheless, the effect is not as dramatic and complete as that seen in the animals fed insulin.

NOD mice [5] = assay: Insulitis in insulin-fed NOD mice (preliminary experiments); settings: fed 1 mg, vs PBS-fed NOD mice; data not shown
Description: Therefore, oral administration of insulin to NOD mice appeared to be affecting the infiltration of immune system cells into the pancreas and thus halting disease progression by preserving beta cell function.

| Substance | endocrinologic effect on blood glucose (NOD mice [1]; FIG. 2) | prevention of symptoms (hyperglycemia) of Type 1 diabetes (NOD mice [2]) | beta cell function (NOD mice [3]) | serum glucose concentrations (NOD mice [3]) | treated animals that failed to develop diabetes ([4]; oral 1 mg (highest dose)) | development of diabetes ([4]; oral 1 mg, twice a week until 9 weeks of age, then once a week) | development of diabetes ([4]; oral 10 microgram group, dose response fashion) | development of diabetes ([4]; oral 100 microgram group, dose response fashion) | incidence / development of diabetes ([4]; oral, all doses tested (10 micrograms, 100 micrograms, 1 mg)) | period over which the glucose decrease persisted (NOD mice [1]; subcutaneous 20 micrograms) | decrease in blood glucose level (NOD mice [1]; subcutaneous 20 micrograms, FIG. 2) | inflammatory immune system cells surrounding the pancreas (insulitis) (NOD mice [5]) |
| --- | --- | --- | --- | --- | --- | --- | --- | --- | --- | --- | --- | --- |
| myelin basic protein | no drop in the blood glucose | – | – | – | – | – | – | – | – | – | – | – |
| Porcine insulin | no drop in the blood glucose; also recorded: no endocrinologic (metabolic) effects | effective in preventing the manifestation of symptoms | preservation of beta cell function | reduction in serum glucose concentrations to near normal levels | 100% | none of the mice went on to develop diabetes; also recorded: no diabetes developed; also recorded: None of the animals developed diabetes | diabetes developed | diabetes developed | lower incidence of diabetes at all doses; also recorded: reduced the numbers of these mice which subsequently went on to develop diabetes | 4 h | approximately 80 mg % | fewer inflammatory immune system cells surrounding the pancreas |
